Reference: patent US9586959B2, “Substituted tricyclic heterocycles as histamine 4 receptor inhibitors” (C&C RESEARCH LABORATORIES, priority 2011, dated 2017)

Key:
[1] = Rat pharmacokinetics (oral); assay type: in vivo; details: plasma, 10 mg/kg, SD rat, 2 mg/mL solution at 5 mL/kg; for AUC(0-inf): read-out: Rat pharmacokinetics AUCinf; for half-life: read-out: Rat pharmacokinetics t1/2 (converted)
Experimental: The weight of each ICR mouse and SD rat was properly 20˜30 g and 200˜300 g, and dosage of the compound of the present invention was 10 mL/kg for mice and 5 mL/kg for rats, and administered orally using Zonde. Blood collection was performed at 0.25, 0.5, 1, 2, 4, 6, 8 and 24 hours by orbital venous blood collection using a capillary tube coated with an anticoagulant, and then plasma was isolated using a centrifuge and kept in a freezer.
Plasma collected from animals and standard concentration material were pretreated using solid-phase extraction, and concentration of the compound of the invention was determined using a liquid chromatography mass spectrometer (Agilent HPLC, API-3000).
According to the resulting concentration value, the pharmacokinetics parameter was found using WinNonlin (Version 6.2) and half-life (t1/2), maximum blood concentration (Cmax) and infinite area under the curve (AUCinf) are shown in Tables 6 and 7 below.

[2] = Metabolic stability in mouse microsome; details: mouse microsome 1 mg/mL, 5 μM compound, 1 mM NADPH
[3] = Metabolic stability in human microsome; details: for Metabolic stability (CLh. int), Human: human microsome 1 mg/mL, 5 μM compound, 1 mM NADPH
[4] = test system: histamine-induced mast cell migration (trachea); assay: Histamine-induced mast cell migration; assay type: in vivo, Balb/c mice; details: 20 mg/kg oral, 0.1 M histamine aerosol, 2 days
Experimental: Female, Balb/c mice (7 weeks old, 20±3 g) were purchased from OrientBio Co., Ltd.
The animals were housed under conditions of controlled temperature (23±3° C.), humidity (50±5%) and lighting with food and water available ad libitum.
Mice were dosed with either vehicle (20% cyclodextrin in second distilled water) or the compound by orally administration. The Compound (20 mg/kg) dissolved in a vehicle and administered orally at a volume of 10 mL/kg. After 15 minutes, mice were challenged by a 20 min aerosol inhalation of PBS (phosphate buffered saline) or 0.1 M histamine (dissolving in PBS). This process was repeated for 2 days. After a final challenge, the tracheae were cleared of blood via perfusion of PBS and tracheae were extracted, the tracheae were fixed in 10% (w/v) formaldehyde for subsequent paraffin cross-sectioning and toluidine blue staining. Total mast cells were calculated, and a mean was reported. (The Journal of Pharmacology and Experimental Therapeutics, 2004, 309, 404-413). Statistical analysis was analyzed using one-way ANOVA with Dunnett test. Values of p<0.05 were considered statistically significant.

[5] = test system: histamine-induced itching, ICR mice; assay: Histamine-induced itching model in ICR mice; assay type: in vivo; details: 50 mg/kg oral, histamine 300 nmol intradermal, 20 min count
Experimental: Female, ICR mice (8 weeks old) were purchased from OrientBio Co., Ltd. The animals were housed under conditions of controlled temperature (23±3° C.), humidity (50±5%) and lighting with food and water available ad libitum.
The hair was clipped using clippers (8000AD, THRIVE) over the rostral part of the back 24 hours before the experiment under anesthesia with isoflurane. Histamine (300 nmol) was dissolved in saline and a volume of 40 μL injected intradermally into the rostral part of the back. Mice were dosed with either vehicle (20% cyclodextrin in second distilled water) or the compound by orally administration. The Compound (50 mg/kg) dissolved in a vehicle (20% cyclodextrin in second distilled water) and administered orally at a volume of 10 mL/kg.
Mice (n=10 per group) were divided into 3 groups (normal group, control group and experimental group). The animals were randomized for similar body weight distribution. A vehicle or the compound was administered 20 minutes before injection of histamine or saline. Immediately after intradermal injection, the animals were returned to an acrylic cage (approximately 30×30×30 cm, access production) composed of four cells, to which they had been acclimated for at least 1 hour before the experiment, for observation of itch responses. A camera (Samsung, VLUUNV30) was positioned above the mice to record their response. Itch was measured by blinded counting of the number of scratching in the 20 min period immediately after the intradermal injection. A number of scratching was defined as 3 or more individual rapid scratch movements with the hind paws around the injection site (J. Allergy Clin. Immunol. 2007, 19(1), 176-183). All data were analyzed by using Excel and Prism, and all values are expressed as the mean±S.E.M. The inhibitory effect of compounds is shown as a percentage of the maximal response to histamine (100% control group).
Statistical analysis was analyzed using one-way ANOVA with Dunnett test. Values of p<0.05 were considered statistically significant.

[6] = target: human serotonin 3 receptor (human 5-HT3 receptor) (Homo sapiens (Human), UniProt P46098); assay: Binding affinity of human serotonin 3 receptor (performed at Cerep); details: for inhibition at 10 µM: read-out: % inhibition degree at 10 μM, human serotonin 3 receptor (h5-HT3R); for IC50: read-out: Binding affinity (IC50) of human serotonin 3 receptor (h5-HT3R)
Experimental: The binding assays of the human serotonin 3 receptor for present invention were performed at Cerep (Poitiers, France), and the results of analysis are shown in Table 3.

[7] = test system: oxazolone-induced atopic dermatitis, Balb/c mice; assay: Oxazolone-induced atopic dermatitis model in Balb/c mice; assay type: in vivo; details: BID, oral, days 8-28
Experimental: Female, Balb/c mice (6 weeks old, 20±3 g) were purchased from OrientBio Co., Ltd. The animals were housed under conditions of controlled temperature (23±3° C.), humidity (50±5%) and lighting with food and water available ad libitum.
On the beginning day (day 1), mice were sensitized by the topical application of 50 μL of 1% oxazolone in acetone and olive oil (4:1 ratio) on the abdominal skin. On day 8, 10, 12, 15, 17, 19, 22, 24 and 26, 25 μL of 0.2% oxazolone was applied topically on the inner side of right ear of each mouse. Between days 8 and 28, the compound of the invention was administered orally (10 mL/kg) twice a day in the morning and afternoon, and on days 12, 19 and 27, the thickness of the right ear of the mouse was measured. On day 28, the ear tissue of the mouse was extracted, fixed in 10% formalin solution, and then a tissue slide was prepared, stained with H&E (hematoxylin & eosin), and then the thickness of the ear was observed (Journal of Investigative Dermatology, 2008, 128, 79-86). Statistical analysis was analyzed using one-way ANOVA with Dunnett test. Values of p<0.05 were considered statistically significant.

human serotonin 3 receptor (human 5-HT3 receptor), sequence (P46098 24-478): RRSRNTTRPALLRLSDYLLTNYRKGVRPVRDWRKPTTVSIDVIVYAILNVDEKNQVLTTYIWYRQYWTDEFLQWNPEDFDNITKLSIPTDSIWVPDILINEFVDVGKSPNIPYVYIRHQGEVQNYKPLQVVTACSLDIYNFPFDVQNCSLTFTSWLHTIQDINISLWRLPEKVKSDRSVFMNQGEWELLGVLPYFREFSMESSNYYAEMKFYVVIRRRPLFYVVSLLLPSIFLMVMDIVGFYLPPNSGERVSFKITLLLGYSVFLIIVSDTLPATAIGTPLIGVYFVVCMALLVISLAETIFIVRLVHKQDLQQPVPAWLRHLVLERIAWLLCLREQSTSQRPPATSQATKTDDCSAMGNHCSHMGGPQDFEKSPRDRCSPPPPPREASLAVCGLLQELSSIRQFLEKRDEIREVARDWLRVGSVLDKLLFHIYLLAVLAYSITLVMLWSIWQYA

Structure (SMILES)	Cmax [1] [ng/mL]	AUC(0-inf) [1] [ng·h/mL]	half-life [1] [h]	Metabolic stability (CLh. int), Mouse [2] [µL/min/mg]	% remaining in 30 minutes ([3]; human microsome, 30 minutes)	Mast cell migration (% change from control group) [4]	Number of scratching (% changes from control group) [5]	inhibition at 10 µM [6] [%]	IC50 [6] [µM]	Metabolic stability (CLh. int), Human [3] [µL/min/mg]	Ear epidermis thickness (% change from control group) ([7]; 100 mg/kg)	Ear epidermis thickness (% change from control group) ([7]; 50 mg/kg) [%]
Clc1cnc2nc(N3CCNCC3)c3nncn3c2c1 [Compound 7, 8-Chloro-4-(piperazin-1-yl)pyrido[2,3-e][1,2,4]triazolo[4,3-a]pyrazine]	1330	3110	1.62	6900	NC^y: Not calculable (99.8% remaining in 30 minutes)	43.1^1%	61.2^1%					
CNC1CN(c2nc3ncc(I)cc3n3cnnc23)C1 [Compound 48, 1-(8-Iodopyrido[2,3-e][1,2,4]triazolo[4,3-a]pyrazin-4-yl)-N-methylazetidin-3-amine]				5310			67.3^1%	28	> 10	400		
CNC1CN(c2nc3ncc(Cl)cc3n3cnnc23)C1 [Compound 18, 1-(8-Chloropyrido[2,3-e][1,2,4]triazolo[4,3-a]pyrazin-4-yl)-N-methylazetidin-3-amine]	2590	4560	1.04	1760			84.3^1%		2.9	4200		
CN1CCN(c2nc3ncc(Cl)cc3n3cnnc23)CC1 [Compound 4, 8-Chloro-4-(4-methylpiperazin-1-yl)pyrido[2,3-e][1,2,4]triazolo[4,3-a]pyrazine]	1950	7740	1.88	10220		70.3^1%	94.3^1%			2200	47.2%	
CNC1CN(c2nc3ncc(Br)cc3n3cnnc23)C1 [Compound 24, 1-(8-Bromopyrido[2,3-e][1,2,4]triazolo[4,3-a]pyrazin-4-yl)-N-methylazetidin-3-amine]	2420	4510	1.3	3050		60.0^1%	93.6^1%		9.1	1330	51.2^1%	
CNC1CN(c2nc3ncc(Br)cc3n3nnnc23)C1 [Compound 95, 1-(8-Bromopyrido[2,3-e]tetrazolo[1,5-a]pyrazin-4-yl)-N-methylazetidin-3-amine]				18100			98.2^1%	25	> 10	5500		34.9
